Here are results for 10 compounds from ChEMBL document CHEMBL1201862, “PubChem BioAssay data set” (2004).

SMILES strings stand for the structures.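 A five-concentration, 48-hour dose response in 96-well plates underlies each endpoint, interpolated linearly between surrounding concentrations. GI50: concentration for 50% inhibition of growth.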 The source made the active and inactive calls. Cut-off read from the data, not from the text of the source: active = GI50 up to about 1.1 µM and inactive = higher. Bounds are passed on as bounds.

Among the test systems are MDA-MB-231; SK-OV-3; M14; MDA-MB-435; OVCAR-5; MCF7; ACHN; OVCAR-4; HCC 2998; UO-31; IGROV-1; UACC-257; KM12; SF-295; NCI-H522; NCI-H23; TK-10; OVCAR-3; OVCAR-8; RPMI-8226.
Common to all, as to assay: growth of human tumour cells (NCI), 48 h

Regarding `COc1ccc(/C=C/C(=O)Oc2cc(O)cc(O)c2)cc1`, the GI50 with MDA-MB-231 was 35.7 µM (inactive); in the assay with SK-OV-3, > 100 µM (inactive); in the assay with M14, 41.4 µM (inactive); in the assay on MDA-MB-435, 61.9 µM (inactive); in the assay with OVCAR-5, > 100 µM (inactive); in the assay on MCF7, 19.5 µM (inactive). The GI50 in the assay on ACHN is 87.5 µM (inactive); in the assay with OVCAR-4, 85.5 µM (inactive); in the assay with HCC 2998 it was 33 µM (inactive); with UO-31, 37.6 µM (inactive); in the assay on IGROV-1, 16.5 µM (inactive); in the assay with UACC-257, > 100 µM (inactive). In addition, the GI50 with KM12 is 14.2 µM (inactive); in the assay on SF-295, 23.2 µM (inactive); in the assay on NCI-H522, 24.4 µM (inactive); in the assay on NCI-H23 it was 42.1 µM (inactive); in the assay with TK-10 it was > 100 µM (inactive); in the assay with OVCAR-3 it was 18 µM (inactive). The GI50 in the assay with OVCAR-8 is 28.2 µM (inactive); with RPMI-8226 it was 16.3 µM (inactive).
For `Nc1nc(-c2cccs2)cs1`, the GI50 in the assay on MDA-MB-231 is 60.4 µM (inactive); in the assay on SK-OV-3 it was > 100 µM (inactive); in the assay on M14, > 100 µM (inactive); in the assay with MDA-MB-435 it was 79.8 µM (inactive); in the assay on OVCAR-5, > 100 µM (inactive); with MCF7 it was 91.8 µM (inactive). Also, the GI50 with ACHN is 98.6 µM (inactive); with OVCAR-4, > 100 µM (inactive); in the assay on HCC 2998, 57.9 µM (inactive); in the assay with UO-31, 54.6 µM (inactive); in the assay with IGROV-1, 47.3 µM (inactive); in the assay with UACC-257, > 100 µM (inactive). The GI50 is 81.7 µM (inactive) in the assay on KM12; 64.4 µM (inactive) with SF-295; 34.9 µM (inactive) in the assay on NCI-H522; > 100 µM (inactive) with NCI-H23; 87.9 µM (inactive) with TK-10; > 100 µM (inactive) in the assay on OVCAR-3. Moreover, the values for the GI50 with OVCAR-8 and in the assay on RPMI-8226 were 58.7 µM (inactive) and 90.8 µM (inactive), respectively.
As for `CC(=O)NC1C(Sc2ncn(C3OC(CO)C(O)C(O)C3NC(C)=O)n2)OC(CO)C(O)C1O` (stereo not given), the GI50 in the assay on MDA-MB-231, with SK-OV-3, with M14, in the assay on MDA-MB-435, with OVCAR-5 and with MCF7 was > 100 µM (inactive) throughout. Further, the GI50 in the assay on ACHN, in the assay on OVCAR-4, in the assay on HCC 2998, in the assay with IGROV-1, in the assay with UACC-257 and in the assay on KM12 was > 100 µM (inactive) each time. In addition, the GI50 in the assay with SF-295, with NCI-H522, in the assay with NCI-H23, in the assay on TK-10, in the assay with OVCAR-3 and in the assay on OVCAR-8 was > 100 µM (inactive) each time. Further, the GI50 in the assay on RPMI-8226 was > 100 µM (inactive).
Consider `N#Cc1c2c(c(Nc3ccc(F)cc3)n3c1nc1ccccc13)CCC2`, for which the GI50 is 3.61 µM (inactive) with MDA-MB-231; 9.93 µM (inactive) in the assay with SK-OV-3; 5.89 µM (inactive) in the assay with M14; 3.25 µM (inactive) in the assay on MDA-MB-435; 5.02 µM (inactive) with OVCAR-5; 3.32 µM (inactive) in the assay on MCF7. Also, the GI50 was 2.29 µM (inactive) in the assay with ACHN; 10 µM (inactive) with OVCAR-4; 18.4 µM (inactive) with HCC 2998; 2.45 µM (inactive) in the assay on UO-31; 3.52 µM (inactive) in the assay with IGROV-1; 7.96 µM (inactive) with UACC-257. Further, the GI50 in the assay with KM12 is 6.55 µM (inactive); in the assay on SF-295, 5.05 µM (inactive); with NCI-H522, 2.2 µM (inactive); with NCI-H23, 4.93 µM (inactive); in the assay with TK-10, 3.7 µM (inactive); in the assay with OVCAR-3, 7.89 µM (inactive). Also, the GI50 is 2.36 µM (inactive) in the assay with OVCAR-8 and 2.28 µM (inactive) in the assay on RPMI-8226.
Regarding `Cc1cc2c(SCc3ccccc3Cl)nc(N)nc2nc1C`, the GI50 in the assay on MDA-MB-231, in the assay on SK-OV-3, with M14, in the assay on MDA-MB-435, with OVCAR-5 and in the assay on MCF7 was > 100 µM (inactive) throughout. The GI50 is > 100 µM (inactive) in the assay with ACHN; > 100 µM (inactive) with OVCAR-4; > 100 µM (inactive) in the assay with HCC 2998; 1.79 µM (inactive) in the assay with UO-31; > 100 µM (inactive) in the assay on IGROV-1; > 100 µM (inactive) in the assay with UACC-257. In addition, the GI50 in the assay on KM12 was > 100 µM (inactive); in the assay on SF-295 it was 97.5 µM (inactive); with NCI-H522 it was 21.4 µM (inactive); in the assay on NCI-H23 it was > 100 µM (inactive); in the assay on TK-10, > 100 µM (inactive); in the assay on OVCAR-3, > 100 µM (inactive). In addition, the GI50 in the assay on OVCAR-8 and with RPMI-8226 was > 100 µM (inactive) throughout.
Take `CC(O)C(NC(=O)C(CS)NC(=O)C(CO)NC(=O)C(CCCCN)NC(=O)C(Cc1c[nH]c2ccccc12)NC(=O)C(Cc1ccc(O)cc1)NC(=O)C(CS)NC(=O)C(N)Cc1ccccc1)C(N)=O` (stereo not given): the GI50 in the assay with MDA-MB-231, with SK-OV-3, in the assay on M14, in the assay on MDA-MB-435, in the assay on OVCAR-5 and with MCF7 was > 25 µM (inactive) in each case. The GI50 was > 25 µM (inactive) in the assay on ACHN; 8.53 µM (inactive) in the assay on OVCAR-4; > 25 µM (inactive) with HCC 2998; > 25 µM (inactive) with UO-31; > 25 µM (inactive) in the assay on IGROV-1; > 25 µM (inactive) in the assay on UACC-257. The GI50 in the assay with KM12, in the assay with SF-295, with NCI-H522, with NCI-H23, with OVCAR-3 and in the assay with OVCAR-8 was > 25 µM (inactive) in each case. Also, in the assay on RPMI-8226, the GI50 was > 25 µM (inactive).
As for `C[P+](c1ccccc1)(c1ccc(Cl)cc1)c1ccc(Cl)cc1`, the GI50 with MDA-MB-231 is 13.2 µM (inactive); with SK-OV-3, 37.2 µM (inactive); in the assay with M14, 11.6 µM (inactive); in the assay with MDA-MB-435 it was 5.45 µM (inactive); in the assay with OVCAR-5, 18.2 µM (inactive); in the assay on MCF7, 26.9 µM (inactive). For the same compound, the GI50 with ACHN was 29.1 µM (inactive); in the assay on OVCAR-4, 13.2 µM (inactive); with HCC 2998 it was 8.61 µM (inactive); in the assay with UO-31 it was 38 µM (inactive); in the assay on IGROV-1, 4.94 µM (inactive); in the assay on UACC-257, 8.11 µM (inactive). Also, the GI50 with NCI-H522 is 12.9 µM (inactive); in the assay with NCI-H23 it was 12.3 µM (inactive); with TK-10, 14.2 µM (inactive); with OVCAR-3 it was 0.183 µM (active); with OVCAR-8, 14.7 µM (inactive); with RPMI-8226, 0.432 µM (active).
Regarding `c1ccc(-c2nc3ccccc3n3c(CN4CCCCC4)nnc23)cc1`, the GI50 in the assay with MDA-MB-231 was 60 µM (inactive); in the assay on SK-OV-3, 47.3 µM (inactive); in the assay on M14 it was > 100 µM (inactive); in the assay on MDA-MB-435, > 100 µM (inactive); in the assay with OVCAR-5, > 100 µM (inactive); with MCF7, > 100 µM (inactive). In addition, the GI50 in the assay with ACHN was 28.7 µM (inactive); with OVCAR-4, > 100 µM (inactive); in the assay on HCC 2998 it was > 100 µM (inactive); in the assay on IGROV-1 it was 47.9 µM (inactive); in the assay with UACC-257, > 100 µM (inactive); in the assay with SF-295, 49.4 µM (inactive). The GI50 with NCI-H522 is > 100 µM (inactive); with TK-10, 35.2 µM (inactive); in the assay on OVCAR-3 it was > 100 µM (inactive); in the assay on OVCAR-8, 99.3 µM (inactive); in the assay with RPMI-8226, > 100 µM (inactive).
In the case of `Nn1c(CNc2ccc(-c3nnc(Nc4ccc(Cl)cc4)n3N)cc2)nnc1Nc1ccc(Cl)cc1`, the GI50 with MDA-MB-231 was > 100 µM (inactive); with SK-OV-3 it was > 100 µM (inactive); in the assay on M14, 51.6 µM (inactive); with MDA-MB-435, > 100 µM (inactive); in the assay with OVCAR-5 it was > 100 µM (inactive); with MCF7, 61.1 µM (inactive). The GI50 with ACHN was > 100 µM (inactive); in the assay with OVCAR-4 it was > 100 µM (inactive); in the assay with HCC 2998 it was > 100 µM (inactive); in the assay with UO-31, 61.4 µM (inactive); with IGROV-1, > 100 µM (inactive); with UACC-257 it was > 100 µM (inactive). Besides, the GI50 in the assay with KM12 was > 100 µM (inactive); in the assay with SF-295 it was > 100 µM (inactive); in the assay with NCI-H522 it was 75.5 µM (inactive); in the assay with NCI-H23, > 100 µM (inactive); with TK-10 it was > 100 µM (inactive); in the assay with RPMI-8226, 61.9 µM (inactive).
As for `CCNc1ncnc2nn[nH]c12`, the GI50 with MDA-MB-231, with SK-OV-3, in the assay on M14, with MDA-MB-435, with MCF7 and in the assay with ACHN was > 100 µM (inactive) in each case. Moreover, the GI50 in the assay on OVCAR-4, in the assay with HCC 2998, with UO-31, in the assay with IGROV-1, with UACC-257 and in the assay with KM12 was > 100 µM (inactive) each time. The GI50 in the assay with SF-295, in the assay on NCI-H522, in the assay on NCI-H23, in the assay with TK-10, in the assay on OVCAR-3 and in the assay with OVCAR-8 was > 100 µM (inactive) in each case. For the same compound, the GI50 with RPMI-8226 was > 100 µM (inactive).
